The target in the series is Bile salt export pump (Homo sapiens, UniProt O95342). The experiment in a line: TP_TRANSPORTER: Western in vitro, primary human hepatocyte. Format: functional, cell-based. The note with it: hepatocytes.
Bile salt export pump, sequence (O95342 whole entry): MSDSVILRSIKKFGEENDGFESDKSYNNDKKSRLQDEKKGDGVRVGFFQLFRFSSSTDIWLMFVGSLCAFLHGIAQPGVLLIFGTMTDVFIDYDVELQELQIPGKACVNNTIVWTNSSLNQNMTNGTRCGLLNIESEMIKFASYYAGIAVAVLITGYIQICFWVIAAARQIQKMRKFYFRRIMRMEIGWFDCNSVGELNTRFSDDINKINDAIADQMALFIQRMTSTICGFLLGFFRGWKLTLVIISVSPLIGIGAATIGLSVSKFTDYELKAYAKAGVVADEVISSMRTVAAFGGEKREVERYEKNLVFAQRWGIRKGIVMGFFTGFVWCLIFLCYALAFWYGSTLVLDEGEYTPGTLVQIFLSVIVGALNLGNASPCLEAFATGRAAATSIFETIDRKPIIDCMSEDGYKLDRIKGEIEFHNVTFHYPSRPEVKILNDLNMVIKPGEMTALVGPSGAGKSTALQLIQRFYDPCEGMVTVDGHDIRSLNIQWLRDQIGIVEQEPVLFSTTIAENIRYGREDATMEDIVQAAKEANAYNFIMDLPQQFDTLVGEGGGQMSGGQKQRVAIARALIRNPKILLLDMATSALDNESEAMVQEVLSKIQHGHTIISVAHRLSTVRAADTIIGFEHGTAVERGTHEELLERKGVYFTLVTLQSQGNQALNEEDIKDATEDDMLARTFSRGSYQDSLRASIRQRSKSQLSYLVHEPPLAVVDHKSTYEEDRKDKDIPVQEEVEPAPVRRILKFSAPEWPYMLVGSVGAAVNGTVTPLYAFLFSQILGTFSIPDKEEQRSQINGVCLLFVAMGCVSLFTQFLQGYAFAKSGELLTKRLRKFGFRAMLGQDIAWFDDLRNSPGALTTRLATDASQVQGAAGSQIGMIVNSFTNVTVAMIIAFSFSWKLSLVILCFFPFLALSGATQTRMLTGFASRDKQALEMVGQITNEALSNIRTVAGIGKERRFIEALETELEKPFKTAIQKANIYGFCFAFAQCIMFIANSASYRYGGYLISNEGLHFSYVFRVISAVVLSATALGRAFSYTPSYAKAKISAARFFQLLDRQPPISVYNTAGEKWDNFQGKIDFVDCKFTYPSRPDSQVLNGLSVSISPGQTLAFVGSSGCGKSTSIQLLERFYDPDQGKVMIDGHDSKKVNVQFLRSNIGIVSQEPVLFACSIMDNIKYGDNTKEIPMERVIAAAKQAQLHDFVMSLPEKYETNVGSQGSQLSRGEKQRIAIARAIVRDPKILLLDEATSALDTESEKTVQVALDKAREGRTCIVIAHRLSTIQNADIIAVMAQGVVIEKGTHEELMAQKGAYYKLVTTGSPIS

In the case of `C[C@H](CCC(=O)O)[C@H]1CC[C@H]2[C@@H]3[C@H](O)C[C@@H]4C[C@H](O)CC[C@]4(C)[C@H]3CC[C@]12C` [CHENODIOL], the Activity entry is “inducer [+]”. Turning to `C[C@H](CCC(=O)O)[C@H]1CC[C@H]2[C@@H]3CC[C@@H]4C[C@H](O)CC[C@]4(C)[C@H]3C[C@H](O)[C@]12C` [DEOXYCHOLIC ACID], the Activity result was “inducer [+]”.

The values above are taken from ChEMBL document CHEMBL2073765, “Disrupted bile acid homeostasis reveals an unexpected interaction among nuclear hormone receptors, transporters, and cytochrome P450” (J Biol Chem, 2001).
